Test results as given in patent US4207320A, “Amino-substituted imidazo[1,2-a:3,4-a']diquinolin-15-ium salts compositions and method of use” (Warner-Lambert Company, priority 1978, dated 1980).

Experiments:
C. guilliermondi [1] = test: Broth Tube Dilution Test, minimal fungicidal concentration; type: cell-based, Candida gulliermondi; settings: Candida, 28° C., 24 hours later
Protocol: (§1) The test compounds are serially diluted in pure dimethylformamide, giving a concentration of 4000, 800, 160 and 32 micrograms/milliliters(μg./ml.).A further dilution (typically a 2-fold or a 5-fold dilution) is made from each of the above serial dilutions into tubes containing 9.4 ml. BactoSabouraud Dextrose Broth, resulting in a set of broth tubes with specific final drug concentrations for which activity is to be determined. Each of the broth tubes is then inoculated with 0.5 ml. of a stock suspension of the same test organism. After inoculation, all of the tubes are incubated at 28° C. The tubes are read 48 hours to 7 days post inoculation, depending on the organism being tested. The lowest concentration of test compound at which growth of the organism is prevented in the broth tubes is taken as the minimal inhibitory concentration (MIC). The Broth+Serum Dilution Test is performed in the same manner as the Broth Tube Dilution Test except that the liquid medium consists of 50% BactoSabouraud Dextrose Broth and 50% normal calf serum from citrated blood. […] The tubes are then read and the lowest concentration of test compound for which there is no growth of the organism in the broth tube is taken as the minimal fungicidal concentration (MFC).

C. krusei [2] = test: Broth Tube Dilution Test, minimal inhibitory concentration; type: cell-based, Candida krusei; settings: Pichia kudriavzevii, 28° C., at 72
Protocol: (§2) Minimal Inhibitory Concentration (MIC) The test compounds are serially diluted in pure dimethylformamide, giving a concentration of 4000, 800, 160 and 32 micrograms/milliliters(μg./ml.).A further dilution (typically a 2-fold or a 5-fold dilution) is made from each of the above serial dilutions into tubes containing 9.4 ml. BactoSabouraud Dextrose Broth, resulting in a set of broth tubes with specific final drug concentrations for which activity is to be determined. Each of the broth tubes is then inoculated with 0.5 ml. of a stock suspension of the same test organism. After inoculation, all of the tubes are incubated at 28° C. The tubes are read 48 hours to 7 days post inoculation, depending on the organism being tested. The lowest concentration of test compound at which growth of the organism is prevented in the broth tubes is taken as the minimal inhibitory concentration (MIC). The Broth+Serum Dilution Test is performed in the same manner as the Broth Tube Dilution Test except that the liquid medium consists of 50% BactoSabouraud Dextrose Broth and 50% normal calf serum from citrated blood.

C. albicans [3] = test: Broth Tube Dilution Test, minimal fungicidal concentration; type: cell-based; settings: Candida albicans, 28° C., 24 hours later
Protocol: (§3) The test compounds are serially diluted in pure dimethylformamide, giving a concentration of 4000, 800, 160 and 32 micrograms/milliliters(μg./ml.).A further dilution (typically a 2-fold or a 5-fold dilution) is made from each of the above serial dilutions into tubes containing 9.4 ml. BactoSabouraud Dextrose Broth, resulting in a set of broth tubes with specific final drug concentrations for which activity is to be determined. Each of the broth tubes is then inoculated with 0.5 ml. of a stock suspension of the same test organism. After inoculation, all of the tubes are incubated at 28° C. The tubes are read 48 hours to 7 days post inoculation, depending on the organism being tested. The lowest concentration of test compound at which growth of the organism is prevented in the broth tubes is taken as the minimal inhibitory concentration (MIC). The Broth+Serum Dilution Test is performed in the same manner as the Broth Tube Dilution Test except that the liquid medium consists of 50% BactoSabouraud Dextrose Broth and 50% normal calf serum from citrated blood. Minimal Fungicidal Concentrations (MFC) For a determination of fungicidal activity, the broth tubes described above are incubated at 28° C. for 48 hours and then serially diluted 1:100 into Bacto-Sabouraud Dextrose Broth and incubated again for 48 hours. The tubes are then read and the lowest concentration of test compound for which there is no growth of the organism in the broth tube is taken as the minimal fungicidal concentration (MFC).

C. tropicalis [4] = test: as above; type: cell-based; settings: Candida tropicalis, 28° C., 24 hours later
Protocol: as §3

Geotrichum candidum [5] = test: as above; type: cell-based; settings: 28° C., 24 hours later
Protocol: as §3

C. stellatoidea [6] = test: as above; type: cell-based; settings: Candida albicans, 28° C., 24 hours later
Protocol: as §3

C. krusei [7] = test: as above; type: cell-based, Candida krusei; settings: Pichia kudriavzevii, 28° C., 24 hours later
Protocol: as §1

C. albicans [8] = test: Broth Tube Dilution Test, minimal inhibitory concentration; type: cell-based; settings: Candida albicans, 28° C., at 72
Protocol: as §2

C. tropicalis [9] = test: as above; type: cell-based; settings: Candida tropicalis, 28° C., at 72
Protocol: as §2

Geotrichum candidum [10] = test: as above; type: cell-based; settings: 28° C., at 72
Protocol: as §2

C. stellatoidea [11] = test: as above; type: cell-based; settings: Candida albicans, 28° C., at 72
Protocol: as §2

C. parapsilosis [12] = test: as above; type: cell-based, Candida parapsilosis; settings: Lodderomyces parapsilosis, 28° C., at 72
Protocol: as §2

C. parapsilosis [13] = test: Broth Tube Dilution Test, minimal fungicidal concentration; type: cell-based, Candida parapsilosis; settings: Lodderomyces parapsilosis, 28° C., 24 hours later
Protocol: as §1

C. guilliermondi [14] = test: Broth Tube Dilution Test, minimal inhibitory concentration; type: cell-based, Candida gulliermondi; settings: Candida, 28° C., at 72
Protocol: as §2

Row | SMILES | MFC (C. guilliermondi [1]) | MIC (C. krusei [2]) | MFC (C. albicans [3]) | MFC (C. tropicalis [4]) | MFC (Geotrichum candidum [5]) | MFC (C. stellatoidea [6]) | MFC (C. krusei [7]) | MIC (C. albicans [8]) | MIC (C. tropicalis [9]) | MIC (Geotrichum candidum [10]) | MIC (C. stellatoidea [11]) | MIC (C. parapsilosis [12]) | MFC (C. parapsilosis [13]) | MIC (C. guilliermondi [14])
1 | CC(C)(C)c1ccc2c(ccc3c[n+]4c5ccc(N6CCCC6)cc5ccc4n32)c1.[Cl-] [Example 7, 10-(1,1-Dimethylethyl)-3-(1-pyrrolidinyl)imidazo[1,2-a:3,4-a']diquinolin-15-ium Chloride] | 2.5 µg/mL | 10 µg/mL | 10 µg/mL | > 10 µg/mL | > 10 µg/mL | 5 µg/mL | 10 µg/mL | 10 µg/mL | > 10 µg/mL | 10 µg/mL | 2.61 µg/mL | 10 µg/mL | > 10 µg/mL | 2.5 µg/mL
2 | CCc1ccc2c(ccc3c[n+]4c5ccc(N6CCCC6)cc5ccc4n32)c1.[Cl-] [Example 26, 10-Ethyl-3-(1-pyrrolidinyl)imidazo[1,2-a: 3,4-a']diquinolin-15-ium chloride] | > 10 µg/mL | 2.5 µg/mL | 2.5 µg/mL | > 10 µg/mL | > 10 µg/mL | 5 µg/mL | 2.5 µg/mL | 2.5 µg/mL | 10 µg/mL | 5 µg/mL | 1.25 µg/mL | 5 µg/mL | > 10 µg/mL | 10 µg/mL
